By Kd is commonly meant the constant that tells how readily two partners part at equilibrium.

This is an account of results in paper PMC8121805, “Discovery of first-in-class inhibitors of ASH1L histone methyltransferase with anti-leukemic activity” (Nature Communications, 2021).

Entries after “also recorded” stand apart in the source; their conditions may differ. Bounds are passed on as bounds.

The target in one test is T1, ASH1L SET domain (Homo sapiens, UniProt Q9NR48).
T1 construct: ASH1L SET domain (amino acids 2069–2288) was expressed and purified; Mocr (N, cleaved yes); made in house; host or cells: E. coli BL21(DE3)
Description: NMR titration (1H-15N TROSY-HSQC). Particulars: linear chemical shift perturbations up to 1 mM. The test is classed as binding.

The target of a further test is T2, ASH1L S2259M (Homo sapiens, UniProt Q9NR48, S2264M).
T2 construct: ASH1L SET domain (2069–2288) in the buffer; made in house
Description: NMR binding to S2259M mutant. The note with it: NMR chemical shift perturbations. As for the experimental part:
For fragment screening, we used an in-house library of 1600 fragment-like compounds with the following properties: average Mw = 183 Da (range of 84–345 Da), mean clogP = 1.5 (from −2.5 to 3.7), hydrogen bond acceptors: from 0 to 6 (median = 3), hydrogen bond donors: 0 to 3 (median = 1).
Supplementary Figure 2. Binding of ASH1L inhibitors. (a) Superposition of the H- N TROSY-HSQC spectra of 100 µM ASH1L SET with 5% DMSO (black) or with 1 mM of compound 1 (red). Most perturbed residues are marked in boxes. (b) Superposition of the crystal structure of ASH1L SET domain (4YNM in PDB) and S2259M mutant of ASH1L (4YNP in PDB). (c) Superposition of the 1H-15N TROSY-HSQC spectra of 100 µM ASH1L S2259M mutant

For `NC(=S)c1cccc(-n2cccc2)c1` [compound 1], the Kd on ASH1L SET domain was over 1000 µM. Further, on ASH1L S2259M, the “binding to ASH1L S2259M mutant” value was “no binding; also recorded: not bind to the S2259M mutant”.
